Assay results: US20090215895A1, “Therapeutic and carrier molecules” (PEPLIN BIOLIPIDS PTY LTD, priority 2004, published 2009)

How the values were obtained:
HUVEC = test: Agonist-enhanced neutrophil adherence to HUVEC; format: cell-based, human; conditions: 20 μmol/l, 1 hr pre-treatment, TNF 4 hr
Procedure: FIG. 11 is a representation showing effect of β-oxa; β-thia and natural PUFA on TNF-enhanced neutrophil adherence to HUVEC. HUVEC were pre-treated with the fatty acids (20 μmol/l) for 60 min at 37° C. before being stimulated with TNF (125 U/200 μl medium) for 4 hr at 37° C. The cells were then co-incubated with neutrophils (5×10^5 cells/well) at 37° C. for 30 min and the degree of neutrophil adherence quantitated. The results are expressed as % of control and represent the mean±SEM of three separate experiments each performed in triplicate. * p<0.05, ***p<0.001, for significant differences between pre-treatment with fatty acid and control (one-way analysis of variance followed by the Dunnett test for multiple comparisons).
Adhesion of neutrophils, prepared by the rapid-single-step method (Ferrante et al, J. Immun. Methods 36:109-117, 1980), to HUVEC isolated from umbilical cords was carried out essentially as described (Huang et al, 1997 supra).
The magnitude of the suppressive effect of -MP3 was dependent on-pre-treatment time and concentration with significant effects observed with a pre-treatment time of 1 hr and a concentration of ≧5 μmol/l.

[1] = Formalin-induced pain test (hind paw licking time); format: in vivo; conditions: 30 min prior to formalin, mean of 5 animals
Procedure: Investigations of the effects of PT2 on pain induced by phenylquinolic acid (PQ writhing) and formalin have been made. In both the PQ writhing test (FIG. 3) and the formalin algesia test (FIG. 4), PT2 administered by intraperitoneal inoculation reduced pain and compared favourably with pain reduction by aspirin (oral, 100 mg/kg). In these tests, the EPUFA was administered 30 min before the pain stimulus and effects recorded over the following 20 min.
Investigations of PT2 in the formalin-induced analgesia model looking specifically at the biphasic response have also been undertaken and are shown in Table 1. It is well documented that in this model, aspirin suppresses only pain related to the inflammatory process (15-20 mins post-administration of formalin), while morphine suppresses pain in both phases of the response (0-5 min and 15-20 min).
Compounds were administered intraperationedly (ip) 30 min prior to the administration of formalin (0.02 ml, 1% solution) via subplantar injection into the right hind paw. Reduction of the induced hind paw licking time recorded during the following 0-5 min period (Phase I response) or 15-20 min period (Phase II response) was determined. The data in Table 1 are the mean responses of 5 animals in each group.

PKC isozyme α = biological target: T1, PKC isozyme α (Homo sapiens, UniProt P17252); test: PMA-induced PKC translocation in HL-60 cells (Western blot); format: cell-based; parameters: key: +++: strong inhibition of PKC activation; −: no inhibition of PKC activation; conditions: 20 μM, 60 min
T1 construct: endogenous in cells; host or cells: HL-60
Procedure: (§1) The effects of nitroanalogs of PUFAs on PKC activation were determined. Lx compounds at a concentration of 20 μM were incubated with the HL-60 cell line (final condition 10^6 cells/ml) for 60 min. PKC activation was then attempted to be induced by PMA. PKC enzyme translocation was quantitated by Western blot.

PKC isozyme β2 = biological target: T2, PKC isozyme β2 (Homo sapiens, UniProt P05771); test: as above; format: cell-based; parameters: key: +++: strong inhibition of PKC activation; −: no inhibition of PKC activation; conditions: 20 μM, 60 min
T2 construct: endogenous in cells; host or cells: HL-60
Procedure: as §1

PKC isozyme δ = biological target: T3, PKC isozyme δ (Homo sapiens, UniProt Q05655); test: as above; format: cell-based; parameters: key: +++: strong inhibition of PKC activation; −: no inhibition of PKC activation; conditions: 20 μM, 60 min
T3 construct: endogenous in cells; host or cells: HL-60
Procedure: as §1

PKC isozyme ε = biological target: T4, PKC isozyme ε (Homo sapiens, UniProt Q02156); test: as above; format: cell-based; parameters: key: +++: strong inhibition of PKC activation; −: no inhibition of PKC activation; conditions: 20 μM, 60 min
T4 construct: endogenous in cells; host or cells: HL-60
T4 sequence (Q02156 1-737): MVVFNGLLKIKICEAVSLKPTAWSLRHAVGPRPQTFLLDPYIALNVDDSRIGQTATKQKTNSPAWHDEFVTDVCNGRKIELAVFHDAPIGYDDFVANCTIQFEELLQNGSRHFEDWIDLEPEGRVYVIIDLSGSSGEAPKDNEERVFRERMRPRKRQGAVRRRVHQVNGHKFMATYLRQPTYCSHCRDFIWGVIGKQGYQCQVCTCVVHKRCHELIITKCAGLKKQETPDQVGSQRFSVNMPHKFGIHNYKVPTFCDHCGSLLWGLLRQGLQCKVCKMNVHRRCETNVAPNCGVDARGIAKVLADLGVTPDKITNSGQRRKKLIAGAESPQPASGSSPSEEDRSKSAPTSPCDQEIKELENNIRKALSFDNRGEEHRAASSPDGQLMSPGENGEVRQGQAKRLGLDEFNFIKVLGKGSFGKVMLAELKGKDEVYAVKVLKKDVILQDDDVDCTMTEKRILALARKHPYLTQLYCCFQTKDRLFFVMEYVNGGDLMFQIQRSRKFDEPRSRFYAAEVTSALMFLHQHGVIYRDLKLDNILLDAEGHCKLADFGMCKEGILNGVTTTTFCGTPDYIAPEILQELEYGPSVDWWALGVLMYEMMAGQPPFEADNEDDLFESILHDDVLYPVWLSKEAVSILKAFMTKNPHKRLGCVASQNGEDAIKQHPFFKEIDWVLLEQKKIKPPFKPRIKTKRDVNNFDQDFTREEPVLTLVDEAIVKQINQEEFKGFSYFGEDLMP
Procedure: as §1

PKC isozyme β1 = biological target: T5, PKC isozyme β1 (Homo sapiens, UniProt P05771); test: as above; format: cell-based; parameters: key: +++: strong inhibition of PKC activation; −: no inhibition of PKC activation; conditions: 20 μM, 60 min
T5 construct: endogenous in cells; host or cells: HL-60
Procedure: as §1

E-selectin = test: Effect of lipoxygenase/cyclooxygenase inhibitors and antioxidants on suppression of E-selectin expression by β-oxa-23:4n-6; format: cell-based, human; conditions: HUVEC pre-treated 15 min with inhibitor, then 20 μmol/l β-oxa-23:4n-6 60 min, TNF-α 4 h
Procedure: FIG. 16 is a representation showing the effects of lipoxygenase/cyclooxygenase inhibitors and antioxidants on the modulation of E-selectin expression on HUVEC by β-oxa-23:4n-6. HUVEC were pre-treated with NDGA, baicalein, MK886, indomethacin, Vitamin E, or diluent (control) for 15 min. The cells were then further incubated with 20 μmol/l β-oxa-23:4n-6 or diluent (control) for 60 min followed by TNF-α (125 U/200 μl medium) for 4 hr and the expression of E-selectin adhesion molecule was determined. The results are expressed as % inhibition of the suppressive effect of β-oxa-23:4n-6 and represent the mean±SEM of three separate experiments each performed in quadruplicate. * p<0.01, for significant differences between pre-treatment with inhibitor and corresponding control (one-way analysis of variance followed by the Dunnett test for multiple comparisons).
Confluent second-passage HUVEC in 96-well tissue culture plates were pre-treated with 10 μmol/l NDGA (non-selective lipoxygenase inhibitor); 10 μmol/l baicalein (a specific 12-lipoxygenase inhibitor); 500 nM MK886 (an inhibitor of the 5-lipoxygenase activating protein), […] indomethacin (a cyclooxygenase inhibitor); 10 μmol/l Vitamin E (an antioxidant); or diluent (control) for 15 min. The cells were then further incubated with 20 μmol/l β-oxa-23:4n-6 or diluent (control) for 60 min followed by TNF-α (125 U) for 4 h. The expression of E-selectin adhesion molecule was determined by ELISA. While none of the inhibitors/antioxidants affected the ability of TNF to enhance E-selectin expression on HUVEC, the ability of β-oxa 23:4n-6 to suppress the action of TNF was reduced when the cells were pre-treated with either NDGA or baicalein but not with indomethacin, Vitamin E or MK886 (FIG. 16).

T3 sequence (Q05655 whole entry): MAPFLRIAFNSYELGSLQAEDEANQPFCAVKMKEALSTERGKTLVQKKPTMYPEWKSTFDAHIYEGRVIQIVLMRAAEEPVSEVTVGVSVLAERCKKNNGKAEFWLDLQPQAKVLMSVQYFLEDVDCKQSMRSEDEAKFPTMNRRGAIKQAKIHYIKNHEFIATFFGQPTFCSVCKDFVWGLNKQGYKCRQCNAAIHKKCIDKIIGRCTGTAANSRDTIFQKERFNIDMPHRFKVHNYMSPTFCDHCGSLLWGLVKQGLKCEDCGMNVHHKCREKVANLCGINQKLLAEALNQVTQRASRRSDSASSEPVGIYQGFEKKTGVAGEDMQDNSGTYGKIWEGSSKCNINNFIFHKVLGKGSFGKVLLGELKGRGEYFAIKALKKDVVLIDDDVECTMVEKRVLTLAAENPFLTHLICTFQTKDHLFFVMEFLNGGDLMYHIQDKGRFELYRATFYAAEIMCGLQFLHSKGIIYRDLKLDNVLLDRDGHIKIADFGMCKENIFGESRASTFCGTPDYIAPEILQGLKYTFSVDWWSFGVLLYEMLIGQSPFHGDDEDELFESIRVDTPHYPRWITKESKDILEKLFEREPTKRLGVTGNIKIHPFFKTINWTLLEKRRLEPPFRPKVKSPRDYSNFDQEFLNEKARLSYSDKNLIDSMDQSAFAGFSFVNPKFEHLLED
T5 sequence (P05771 whole entry): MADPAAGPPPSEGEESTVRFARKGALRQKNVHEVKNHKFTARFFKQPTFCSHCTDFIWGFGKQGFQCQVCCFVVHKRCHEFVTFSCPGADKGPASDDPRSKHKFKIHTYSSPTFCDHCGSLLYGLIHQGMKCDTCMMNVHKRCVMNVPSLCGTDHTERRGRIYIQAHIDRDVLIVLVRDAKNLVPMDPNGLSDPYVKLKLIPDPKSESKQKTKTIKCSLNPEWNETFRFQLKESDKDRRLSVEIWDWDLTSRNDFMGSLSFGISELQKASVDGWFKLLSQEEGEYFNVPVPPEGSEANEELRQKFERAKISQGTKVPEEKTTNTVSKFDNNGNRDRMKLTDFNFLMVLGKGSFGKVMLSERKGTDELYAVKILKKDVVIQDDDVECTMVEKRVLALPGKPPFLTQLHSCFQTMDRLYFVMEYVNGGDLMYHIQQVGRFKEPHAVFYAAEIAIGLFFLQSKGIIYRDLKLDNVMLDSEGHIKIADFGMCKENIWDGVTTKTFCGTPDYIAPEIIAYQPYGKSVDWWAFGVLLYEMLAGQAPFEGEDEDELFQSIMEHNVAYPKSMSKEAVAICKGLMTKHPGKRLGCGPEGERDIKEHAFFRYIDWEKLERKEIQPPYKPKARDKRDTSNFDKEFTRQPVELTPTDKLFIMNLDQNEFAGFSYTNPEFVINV
T2 sequence (P05771 1-673 isoform P05771-2): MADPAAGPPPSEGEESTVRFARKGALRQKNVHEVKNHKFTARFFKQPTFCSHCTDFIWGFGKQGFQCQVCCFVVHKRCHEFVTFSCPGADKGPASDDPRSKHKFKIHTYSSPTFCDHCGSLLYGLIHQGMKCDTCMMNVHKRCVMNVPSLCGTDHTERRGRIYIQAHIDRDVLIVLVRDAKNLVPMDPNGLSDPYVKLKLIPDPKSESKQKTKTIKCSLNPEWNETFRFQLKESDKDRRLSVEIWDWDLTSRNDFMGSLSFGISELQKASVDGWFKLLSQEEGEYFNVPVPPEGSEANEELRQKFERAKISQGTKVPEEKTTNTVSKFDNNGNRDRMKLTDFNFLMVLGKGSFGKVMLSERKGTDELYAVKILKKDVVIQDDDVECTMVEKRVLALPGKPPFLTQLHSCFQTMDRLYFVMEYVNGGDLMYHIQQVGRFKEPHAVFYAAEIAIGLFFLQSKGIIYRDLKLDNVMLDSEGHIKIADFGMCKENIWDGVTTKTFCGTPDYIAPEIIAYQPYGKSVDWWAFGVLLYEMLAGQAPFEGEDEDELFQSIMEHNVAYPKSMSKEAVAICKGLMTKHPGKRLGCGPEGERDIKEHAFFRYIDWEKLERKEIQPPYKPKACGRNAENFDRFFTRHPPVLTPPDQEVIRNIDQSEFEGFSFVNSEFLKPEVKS

Molecule: CCCCC/C=C\C/C=C\CCCCCCCC(=O)O [18:2n-6, octadecadienoic acid, reference compound]
- Inhibition of TNF-α-enhanced neutrophil adhesion to HUVEC (HUVEC): no significant effect

Molecule: CC(=O)Oc1ccccc1C(=O)O [Aspirin, reference compound]
- % inhibition of pain response, Phase I (0-5 mins) ([1]; 300 mg/kg ip): 30%
- % inhibition of pain response, Phase II (15-20 mins) ([1]; 300 mg/kg ip): 91%

Molecule: CCCCCCCCCCCCCCCCCC[N+](=O)[O-] [Lx1]
- Inhibition of PKC activation, isozyme α (PKC isozyme α): −
- Inhibition of PKC activation, isozyme β2 (PKC isozyme β2): −
- Inhibition of PKC activation, isozyme δ (PKC isozyme δ): −
- Inhibition of PKC activation, isozyme ε (PKC isozyme ε): −

Molecule: CC/C=C\C/C=C\C/C=C\CCCCCCCC[N+](=O)[O-] [Lx2]
- Inhibition of PKC activation, isozyme α (PKC isozyme α): −
- Inhibition of PKC activation, isozyme β1 (PKC isozyme β1): −
- Inhibition of PKC activation, isozyme β2 (PKC isozyme β2): +++
- Inhibition of PKC activation, isozyme δ (PKC isozyme δ): −
- Inhibition of PKC activation, isozyme ε (PKC isozyme ε): −

Molecule: CCCCC/C=C\C/C=C\C/C=C\CCCCC[N+](=O)[O-] [Lx3]
- Inhibition of PKC activation, isozyme α (PKC isozyme α): −
- Inhibition of PKC activation, isozyme β1 (PKC isozyme β1): −
- Inhibition of PKC activation, isozyme β2 (PKC isozyme β2): +++
- Inhibition of PKC activation, isozyme δ (PKC isozyme δ): −
- Inhibition of PKC activation, isozyme ε (PKC isozyme ε): −

Molecule: CCCCC/C=C\C/C=C\C/C=C\C/C=C\CCCC[N+](=O)[O-] [Lx4]
- Inhibition of PKC activation, isozyme β1 (PKC isozyme β1): +++
- Inhibition of PKC activation, isozyme β2 (PKC isozyme β2): +++
- Inhibition of PKC activation, isozyme δ (PKC isozyme δ): +++
- Inhibition of PKC activation, isozyme ε (PKC isozyme ε): −

Molecule: CC/C=C\C/C=C\C/C=C\C/C=C\C/C=C\C/C=C\CCC[N+](=O)[O-] [Lx5]
- Inhibition of PKC activation, isozyme α (PKC isozyme α): −
- Inhibition of PKC activation, isozyme β1 (PKC isozyme β1): −
- Inhibition of PKC activation, isozyme β2 (PKC isozyme β2): −
- Inhibition of PKC activation, isozyme δ (PKC isozyme δ): −

Molecule: CC(C)c1ccc2c(c1)c(SC(C)(C)C)c(CC(C)(C)C(=O)O)n2Cc1ccc(Cl)cc1 [MK886]
- Effect on ability of β-oxa 23:4n-6 to suppress TNF-induced E-selectin expression (E-selectin): not

Molecule: CN1CC[C@]23c4c5ccc(O)c4O[C@H]2[C@@H](O)C=C[C@H]3[C@H]1C5 [Morphine, reference compound]
- % inhibition of pain response, Phase I (0-5 mins) ([1]; 10 mg/kg ip): 85%
- % inhibition of pain response, Phase II (15-20 mins) ([1]; 10 mg/kg ip): 100%

Molecule: CC(Cc1ccc(O)c(O)c1)C(C)Cc1ccc(O)c(O)c1 (stereo not shown) [NDGA, nordihydroguairetic acid]
- Effect on ability of β-oxa 23:4n-6 to suppress TNF-induced E-selectin expression (E-selectin): reduced

Molecule: O=c1cc(-c2ccccc2)oc2cc(O)c(O)c(O)c12 [baicalein]
- Effect on ability of β-oxa 23:4n-6 to suppress TNF-induced E-selectin expression (E-selectin): reduced

Molecule: COc1ccc2c(c1)c(CC(=O)O)c(C)n2C(=O)c1ccc(Cl)cc1 [indomethacin]
- Effect on ability of β-oxa 23:4n-6 to suppress TNF-induced E-selectin expression (E-selectin): not

Molecule: CCCCC/C=C\C/C=C\C/C=C\CCCCCOCC(=O)O [β-oxa-21:3n-6]
- Inhibition of TNF-α-enhanced neutrophil adhesion to HUVEC (HUVEC): inhibited their ability to be stimulated

Molecule: CC/C=C\C/C=C\C/C=C\CCCCCCCCSCC(=O)O [β-thia-21:3n-3]
- Inhibition of TNF-α-enhanced neutrophil adhesion to HUVEC (HUVEC): inhibited their ability to be stimulated

Molecule: CCCCC/C=C\C/C=C\C/C=C\CCCCCSCC(=O)O [β-thia-21:3n-6]
- Inhibition of TNF-α-enhanced neutrophil adhesion to HUVEC (HUVEC): inhibited their ability to be stimulated

Molecule: CCCCC/C=C\C/C=C\C/C=C\C/C=C\CCCCSCC(=O)O [β-thia-23:4n-6]
- Inhibition of TNF-α-enhanced neutrophil adhesion to HUVEC (HUVEC): inhibited their ability to be stimulated
- Inhibition of TNF-α-enhanced neutrophil adhesion to HUVEC (HUVEC; listed as β-thia 23:4n-6): less active than this β-oxa compound

Molecule: Vitamin E
- Effect on ability of β-oxa 23:4n-6 to suppress TNF-induced E-selectin expression (E-selectin): not
